Molecules are shown by their SMILES.

A short description of this data set: in vivo. To be noted: male, Sprague-Dawley, rat, po; for MRT last: MRT(0–t); for MRT inf: MRT(0–∞); for half-life: t1/2.

Procedure: Pieces of LJ, SN, AS and GU were weighed according to the proportion of 3:3:2:1 with appropriate amounts. The mixed pieces were crushed and decocted two times (60 min each time) with water (1:10 w/v) after being soaked for 60 min. The decoctions were then combined and condensed to the concentration of 0.5 g/mL, after which 95% ethanol was slowly added to the concentrate until a final ethanol concentration of 70% was reached. The SYD solution was set at room temperature overnight and then was filtered. The solvent was recovered, and the residue was dried under reduced pressure. A certain amount of the water extract of SYD was weighed and then dissolved with purified water for intragastric (oral) administration solution. The single herbs and different combination groups such as LJ, SN, AS, GU, LJ + SN, LJ + AS, LJ + GU, SN + AS, SN + GU, AS + GU, LJ + SN + AS, LJ + SN + GU, LJ + AS + GU and SN + AS + GU were prepared according to the procedure of SYD.
Male Sprague-Dawley (SD) rats (body weight 250 ± 10 g) were supplied by the SPF (Beijing) Biotechnology Co., Ltd. (Certificate No.: SCXK 2016-0002, Beijing, China). The animals were maintained in controlled conditions (temperature 20–25 °C, relative humidity 55–60% and 12-h light/12-h dark cycle) with free access to standard laboratory food and water for seven days of acclimation and then fasted for 12 h before each experiment but allowed to drink freely during this time.
Ninety male SD rats were randomly separated into 15 groups and administered a dosage of extract via gastric gavage once per day; detailed information about the oral daily dose of SYD extract and the corresponding single and combined TCMs (LJ, SN, AS, GU, LJ + SN, LJ + AS, LJ + GU, SN + AS, SN + GU, AS + GU, LJ + SN + AS, LJ + SN + GU, LJ + AS + GU, SN + AS + GU and SYD) is listed in Table 4.
Each plasma sample (200 μL) with 50 μL IS solution added was spiked into 100 μL 1% formic acid distilled water solution and then vortexed for 1 min. Protein was precipitated by adding 600 μL of methanol to the mixture. After being vortexed and sonicated, the samples were centrifuged at 25,000 r/min, 4 °C for 10 min. The supernatant of each sample was transferred to a new 2-mL centrifuge tube and evaporated to dryness by N2 at 40 °C. Finally, the residue was dissolved in 100 μL methanol–water (1:1, v/v), followed by centrifugation at 30,000 r/min, 4 °C for 10 min, and 10-μL supernatant aliquots were injected into the UPLC-MS/MS system for analysis.
The SYD was decomposed into 15 groups of compatibility combinations (LJ, SN, AS, GU, LJ + SN, LJ + AS, LJ + GU, SN + AS, SN + GU, AS + GU, LJ + SN + AS, LJ + SN + GU, LJ + AS + GU, SN + AS + GU and SYD). The 15 combinations were weighed according to the proportion of 3:3:2:1 with appropriate amounts and prepared by the method described in “Section 3.2”. Six male SD rats (body weight 250 ± 10 g) of each compatibility group were used in the pharmacokinetic study. After 12-h fast, rats of the different groups were orally administered the respective extract dissolved in saline (Table 4). Venous blood (0.45 mL) was obtained from the orbit vein and collected in heparin-pretreated polypropylene centrifuge tubes at 0.083 h, 0.17 h, 0.25 h, 0.50 h, 0.75 h, 1.0 h, 1.5 h, 2.0 h, 3.0 h, 4.0 h, 6.0 h, 8.0, 12 h and 24 h post-dose. The plasma was separated by centrifugation at 8000 r/min for 10 min and then stored at −20 °C until analysis. The amount of each analyte in the plasma was estimated by UPLC-MS/MS analysis as described in Section 3.5.
Non-compartmental methods using Phoenix WinNonlin 7.0 software provided by the Beijing University of Chinese Medicine were used to analyze plasma concentration versus time profiles and to estimate the following pharmacokinetic parameters: terminal elimination half-lives (t1/2), area under the plasma concentration versus time curve from zero to last sampling time (AUC), and the mean residence time (MRT).

Where the note is “2.15 g/kg”, `C=C[C@H]1[C@H](O[C@@H]2O[C@H](CO)[C@@H](O)[C@H](O)[C@H]2O)OC=C2C(=O)OCC[C@H]21` [Sweroside, sweroside] returned an AUC(0-t) of 6900 ± 2660 ng·h/mL, an AUC(0-inf) of 7860 ± 4080 ng·h/mL, a Cmax of 2920 ± 1770 ng/mL and an MRT last of 4.46 ± 1.2 h. In addition, where the note is “2.15 g/kg”, the MRT inf was determined as 7.5 ± 5.21 h, the Tmax was determined as 0.96 ± 0.58 h and the half-life was 7.39 ± 6.33 h. For the setting “8.25 g/kg”, this compound had an AUC(0-t) of 4490 ± 280 ng·h/mL, an AUC(0-inf) of 4530 ± 290 ng·h/mL, a Cmax of 1970 ± 700 ng/mL and an MRT last of 3.3 ± 0.39 h. Where the note is “8.25 g/kg”, the MRT inf was determined as 3.53 ± 0.29 h, the Tmax worked out at 1.33 ± 0.49 h and the half-life was 4.14 ± 1.46 h.

Source of the values: article PMC6150365, “Simultaneous Determination of Seven Components in Rat Plasma by the UPLC-MS/MS Method and Application of Pharmacokinetic Studies to SimiaoYong’an Decoction” (Molecules : A Journal of Synthetic Chemistry and Natural …, 2017).
